Data from US20050250801A1, “Method of treating cancer with azaspirane compositions” (priority 2003, published 2005).
Where two headings read alike, the source gives them in different places.

Columns and labels:
Test in all cases: NCI in vitro SRB assay, Melanoma
Assay type in all cases: cell-based
LOX IMVI = settings: for GI50 / CC50: Homo sapiens
Experimental: (§1) An in vitro assay which tested the ability of N,N,-diethyl-8,8-dipropyl-2-azaspiro[4,5]decane-2-propanamine dimaleate (Compound 1) to inhibit the growth of known cancer cell lines was performed by the National Cancer Institute in accordance with standard procedures. See: Lin, Z. X., Hoult, J. R., and Raman, A. Sulphorhodamine B assay for measuring proliferation of a pigmented melanocyte cell line and its application to the evaluation of crude drugs used in the treatment of vitiligo. J Ethnopharmacol. 66: 141-150, 1999. Briefly, selected tumor cell lines were cultured in media containing five different concentrations of Compound 1. After 48 hours of continuous exposure, a sulforhodamine B (SRB) assay was used to estimate cell viability or growth via optical measurements.
(§2) From the measurements, the following values were determined: 1) the concentration of Compound 1 at which a tumor cell growth inhibition of 50% (relative to control) occurs (GI50), 2) the concentration of Compound 1 at which no growth occurs (total growth inhibition, TGI), and 3) the concentration of Compound 1 at which the […] (LC 50). […] FIG. 6 illustrates, graphically, tumor cell growth as a function of Compound 1 concentration of the scanned tumor cell lines.

M14 = settings: for CC50 / GI50: Homo sapiens
Experimental: as §1, §2

MALME-3M = settings: for CC50 / GI50: Homo sapiens, Malme-3M
Experimental: as §1, §2

SK-MEL-28 = settings: for CC50 / GI50: Homo sapiens
Experimental: as §1, §2

SK-MEL-2 = settings: for CC50 / GI50: Homo sapiens
Experimental: as §1, §2

SK-MEL-5 = settings: for CC50 / GI50: Homo sapiens
Experimental: as §1, §2

UACC-257 = settings: for CC50 / GI50: Homo sapiens
Experimental: as §1, §2

UACC-62 = settings: for CC50 / GI50: Homo sapiens
Experimental: as §1, §2

[1] = read-out: Log10 GI50 (converted)
[2] = read-out: Log10 LC50 (converted)
[3] = MALME-3M, Log10 conc -4.0 Moles/L
[4] = MALME-3M, Log10 conc -5.0 Moles/L
[5] = MALME-3M, Log10 conc -6.0 Moles/L
[6] = MALME-3M, Log10 conc -7.0 Moles/L
[7] = MALME-3M, Log10 conc -8.0 Moles/L
[8] = SK-MEL-28, Log10 conc -4.0 Moles/L
[9] = SK-MEL-28, Log10 conc -5.0 Moles/L
[10] = SK-MEL-28, Log10 conc -6.0 Moles/L
[11] = SK-MEL-28, Log10 conc -7.0 Moles/L
[12] = SK-MEL-28, Log10 conc -8.0 Moles/L
[13] = SK-MEL-2, Log10 conc -4.0 Moles/L
[14] = SK-MEL-2, Log10 conc -5.0 Moles/L
[15] = SK-MEL-2, Log10 conc -6.0 Moles/L
[16] = SK-MEL-2, Log10 conc -7.0 Moles/L
[17] = SK-MEL-2, Log10 conc -8.0 Moles/L
[18] = SK-MEL-5, Log10 conc -4.0 Moles/L
[19] = SK-MEL-5, Log10 conc -5.0 Moles/L
[20] = SK-MEL-5, Log10 conc -6.0 Moles/L
[21] = SK-MEL-5, Log10 conc -7.0 Moles/L
[22] = SK-MEL-5, Log10 conc -8.0 Moles/L
[23] = UACC-257, Log10 conc -4.0 Moles/L
[24] = UACC-257, Log10 conc -5.0 Moles/L
[25] = UACC-257, Log10 conc -6.0 Moles/L
[26] = UACC-257, Log10 conc -7.0 Moles/L
[27] = UACC-257, Log10 conc -8.0 Moles/L
[28] = UACC-62, Log10 conc -4.0 Moles/L
[29] = UACC-62, Log10 conc -5.0 Moles/L
[30] = UACC-62, Log10 conc -6.0 Moles/L
[31] = UACC-62, Log10 conc -7.0 Moles/L
[32] = UACC-62, Log10 conc -8.0 Moles/L

CCCC1(CCC)CCC2(CCN(CCCN(CC)CC)C2)CC1.O=C(O)/C=C\C(=O)O.O=C(O)/C=C\C(=O)O [Compound 1, N,N,-diethyl-8,8-dipropyl-2-azaspiro[4,5]decane-2-propanamine dimaleate]
Log10 TGI (LOX IMVI): −5.74
TGI (LOX IMVI): 1840 nM
GI50 (LOX IMVI; read-out: GI50): 515 nM
CC50 (LOX IMVI; read-out: LC50): 4290 nM
GI50 (LOX IMVI; [1]): 513 nM
CC50 (LOX IMVI; [2]): 4270 nM
Mean Optical Densities (LOX IMVI; Log10 conc -4.0 Moles/L): −0.030
Percent Growth (LOX IMVI; Log10 conc -4.0 Moles/L): −100%
Mean Optical Densities (LOX IMVI; Log10 conc -5.0 Moles/L): −0.044
Percent Growth (LOX IMVI; Log10 conc -5.0 Moles/L): −100%
Mean Optical Densities (LOX IMVI; Log10 conc -6.0 Moles/L): 0.595
Percent Growth (LOX IMVI; Log10 conc -6.0 Moles/L): 36%
Mean Optical Densities (LOX IMVI; Log10 conc -7.0 Moles/L): 1.037
Percent Growth (LOX IMVI; Log10 conc -7.0 Moles/L): 85%
Mean Optical Densities (LOX IMVI; Log10 conc -8.0 Moles/L): 1.072
Percent Growth (LOX IMVI; Log10 conc -8.0 Moles/L): 89%
CC50 (M14; M14, read-out: LC50): 1800 nM
CC50 (M14; M14, read-out: Log10 LC50 (converted)): 1820 nM
GI50 (M14; M14, read-out: GI50): 203 nM
GI50 (M14; M14, read-out: Log10 GI50 (converted)): 204 nM
Log10 TGI (M14; M14): −6.32
TGI (M14; M14): 477 nM
Mean Optical Densities (M14; M14, Log10 conc -4.0 Moles/L): 0.109
Percent Growth (M14; M14, Log10 conc -4.0 Moles/L): −61%
Mean Optical Densities (M14; M14, Log10 conc -5.0 Moles/L): 0.086
Percent Growth (M14; M14, Log10 conc -5.0 Moles/L): −69%
Mean Optical Densities (M14; M14, Log10 conc -6.0 Moles/L): 0.158
Percent Growth (M14; M14, Log10 conc -6.0 Moles/L): −43%
Mean Optical Densities (M14; M14, Log10 conc -7.0 Moles/L): 0.838
Percent Growth (M14; M14, Log10 conc -7.0 Moles/L): 92%
Mean Optical Densities (M14; M14, Log10 conc -8.0 Moles/L): 0.884
Percent Growth (M14; M14, Log10 conc -8.0 Moles/L): 99%
CC50 (MALME-3M; read-out: LC50): 5900 nM
CC50 (MALME-3M; [2]): 5890 nM
GI50 (MALME-3M; read-out: GI50): 1600 nM
GI50 (MALME-3M; [1]): 1580 nM
Log10 TGI (MALME-3M; MALME-3M): −5.51
TGI (MALME-3M; MALME-3M): 3070 nM
Mean Optical Densities (MALME-3M; [3]): 0.084
Percent Growth (MALME-3M; [3]): −91%
Mean Optical Densities (MALME-3M; [4]): 0.089
Percent Growth (MALME-3M; [4]): −91%
Mean Optical Densities (MALME-3M; [5]): 1.108
Percent Growth (MALME-3M; [5]): 86%
Mean Optical Densities (MALME-3M; [6]): 1.047
Percent Growth (MALME-3M; [6]): 55%
Mean Optical Densities (MALME-3M; [7]): 1.103
Percent Growth (MALME-3M; [7]): 84%
CC50 (SK-MEL-28; SK-MEL-28, read-out: LC50): 4860 nM
CC50 (SK-MEL-28; SK-MEL-28, read-out: Log10 LC50 (converted)): 4900 nM
GI50 (SK-MEL-28; SK-MEL-28, read-out: GI50): 561 nM
GI50 (SK-MEL-28; SK-MEL-28, read-out: Log10 GI50 (converted)): 562 nM
Log10 TGI (SK-MEL-28; SK-MEL-28): −5.72
TGI (SK-MEL-28; SK-MEL-28): 1890 nM
Mean Optical Densities (SK-MEL-28; [8]): 0.026
Percent Growth (SK-MEL-28; [8]): −95%
Mean Optical Densities (SK-MEL-28; [9]): 0.061
Percent Growth (SK-MEL-28; [9]): −88%
Mean Optical Densities (SK-MEL-28; [10]): 0.846
Percent Growth (SK-MEL-28; [10]): 34%
Mean Optical Densities (SK-MEL-28; [11]): 1.473
Percent Growth (SK-MEL-28; [11]): 98%
Mean Optical Densities (SK-MEL-28; [12]): 1.301
Percent Growth (SK-MEL-28; [12]): 80%
CC50 (SK-MEL-2; SK-MEL-2, read-out: LC50): > 100000 nM
CC50 (SK-MEL-2; SK-MEL-2, read-out: Log10 LC50 (converted)): > 100000 nM
GI50 (SK-MEL-2; SK-MEL-2, read-out: GI50): 3450 nM
GI50 (SK-MEL-2; SK-MEL-2, read-out: Log10 GI50 (converted)): 3470 nM
Log10 TGI (SK-MEL-2; SK-MEL-2): >−4.00
TGI (SK-MEL-2; SK-MEL-2): >100000 nM
Mean Optical Densities (SK-MEL-2; [13]): 0.168
Percent Growth (SK-MEL-2; [13]): 7%
Mean Optical Densities (SK-MEL-2; [14]): 0.167
Percent Growth (SK-MEL-2; [14]): 7%
Mean Optical Densities (SK-MEL-2; [15]): 1.199
Percent Growth (SK-MEL-2; [15]): 100%
Mean Optical Densities (SK-MEL-2; [16]): 1.191
Percent Growth (SK-MEL-2; [16]): 99%
Mean Optical Densities (SK-MEL-2; [17]): 1.191
Percent Growth (SK-MEL-2; [17]): 99%
CC50 (SK-MEL-5; SK-MEL-5, read-out: LC50): 5250 nM
CC50 (SK-MEL-5; SK-MEL-5, read-out: Log10 LC50 (converted)): 5250 nM
GI50 (SK-MEL-5; SK-MEL-5, read-out: GI50): 1280 nM
GI50 (SK-MEL-5; SK-MEL-5, read-out: Log10 GI50 (converted)): 1290 nM
Log10 TGI (SK-MEL-5; SK-MEL-5): −5.59
TGI (SK-MEL-5; SK-MEL-5): 2590 nM
Mean Optical Densities (SK-MEL-5; [18]): −0.001
Percent Growth (SK-MEL-5; [18]): −100%
Mean Optical Densities (SK-MEL-5; [19]): 0.021
Percent Growth (SK-MEL-5; [19]): −96%
Mean Optical Densities (SK-MEL-5; [20]): 1.420
Percent Growth (SK-MEL-5; [20]): 68%
Mean Optical Densities (SK-MEL-5; [21]): 1.797
Percent Growth (SK-MEL-5; [21]): 95%
Mean Optical Densities (SK-MEL-5; [22]): 1.779
Percent Growth (SK-MEL-5; [22]): 93%
CC50 (UACC-257; UACC-257, read-out: LC50): 8740 nM
CC50 (UACC-257; UACC-257, read-out: Log10 LC50 (converted)): 8710 nM
GI50 (UACC-257; UACC-257, read-out: GI50): 1740 nM
GI50 (UACC-257; UACC-257, read-out: Log10 GI50 (converted)): 1740 nM
Log10 TGI (UACC-257; UACC-257): −5.41
TGI (UACC-257; UACC-257): 3900 nM
Mean Optical Densities (UACC-257; [23]): 0.113
Percent Growth (UACC-257; [23]): −75%
Mean Optical Densities (UACC-257; [24]): 0.190
Percent Growth (UACC-257; [24]): −58%
Mean Optical Densities (UACC-257; [25]): 1.302
Percent Growth (UACC-257; [25]): 84%
Mean Optical Densities (UACC-257; [26]): 1.427
Percent Growth (UACC-257; [26]): 97%
Mean Optical Densities (UACC-257; [27]): 1.403
Percent Growth (UACC-257; [27]): 94%
CC50 (UACC-62; UACC-62, read-out: LC50): 2530 nM
CC50 (UACC-62; UACC-62, read-out: Log10 LC50 (converted)): 2510 nM
GI50 (UACC-62; UACC-62, read-out: GI50): 218 nM
GI50 (UACC-62; UACC-62, read-out: Log10 GI50 (converted)): 219 nM
Log10 TGI (UACC-62; UACC-62): −6.19
TGI (UACC-62; UACC-62): 642 nM
Mean Optical Densities (UACC-62; [28]): 0.060
Percent Growth (UACC-62; [28]): −89%
Mean Optical Densities (UACC-62; [29]): 0.034
Percent Growth (UACC-62; [29]): −94%
Mean Optical Densities (UACC-62; [30]): 0.421
Percent Growth (UACC-62; [30]): −21%
Mean Optical Densities (UACC-62; [31]): 1.379
Percent Growth (UACC-62; [31]): 86%
Mean Optical Densities (UACC-62; [32]): 1.375
Percent Growth (UACC-62; [32]): 85%
